From patent US20260240838A1, “USE OF NITRONE COMPOUNDS OR PHARMACEUTICALLY ACCEPTABLE SALTS THEREOF IN COMBINATION WITH SGLT-2 INHIBITORS” (GUANGZHOU MAGPIE PHARMACEUTICALS CO., LTD., priority 2022, published 2026)

Assays:
[1] = FAERS-based analysis, rank order; cited from earlier work
[2] = tested on: IL-1β; experiment: Detection of the level of IL-1β in serum of db/db mice by ELISA kit (Example 1); format: in vivo; conditions: 6 weeks, compared to Model group
Source text: (§1) Db/db mice are type II diabetes mice caused by leptin receptor gene defect located on chromosome 4. They began to drink, eat, urinate and be obese at the age of 4 weeks. With the increase of age, they have obvious characteristics of hyperglycemia, hyperlipidemia and insulin resistance. Their pathogenesis is very similar to that of type II diabetes patients. With the aggravation of diabetes, db/db mice have a series of complications. The main pathological changes of kidney tissue are dilation of glomerular mesangial interstitium, thickening of glomerular basement membrane, excessive accumulation of extracellular matrix, etc. It is a good model to study the early morphological changes of DKD kidney.
(§2) 6-week-old db/db mice were given adaptive feeding for 1 week (i.e. 7 weeks), with TBN and TN-2 administered separately and in combination with Empagliflozin twice a day (fixed at 9:00-10:00 am and 3:00-4:00 pm, with an interval of 6 hours), for a continuous 6 weeks of administration.
(§3) After 6 weeks of administration, the whole blood was left to stand at room temperature for 1 hour. Then, it was transferred to a centrifuge and centrifuged at 3000 rpm for 10 minutes. The upper layer of serum was taken out and placed in an EP tube and stored in a −20° C. freezer for later use. Detection the level of IL-6 and IL-1β in serum of mice in each group using ELISA kit.

[3] = tested on: db/db mice; experiment: Detection of 24-hour urinary microalbumin in db/db mice by ELISA kit (Example 1); format: in vivo; conditions: for Changes in urinary microalbumin: 24-hour urine, compared to Model group; for 24-hour urinary microalbumin (in words): in combination with a SGLT-2 inhibitor
Source text: as §1, §2
Db/db mice were tested for 24-hour urinary microalbumin at 4 and 6 weeks after drug treatment. Each group of mice was placed in a metabolic cage, drinking water freely, and 24-hour urine samples were collected. After centrifugation and precipitation, the levels of microalbuminuria in the 24-hour urine of each group of mice were detected using an ELISA kit.

[4] = tested on: IL-6; experiment: Detection of the level of IL-6 in serum of db/db mice by ELISA kit (Example 1); format: in vivo; conditions: for Changes in IL-6: 6 weeks, serum of db/db mice, compared to Model group; for content of IL-6 in the serum of model animals (in words): alone or in combination with a SGLT-2 inhibitor (such as Entegliflozin)
Source text: as §1, §2, §3

[5] = tested on: db/db mice; experiment: Blood glucose testing in db/db mice, TBN/TN-2 alone and with Empagliflozin (Example 1); format: in vivo; conditions: for Changes in blood glucose: 6 weeks, compared to Model group; for blood sugar (in words): in combination with a SGLT-2 inhibitor
Source text: as §1, §2
During the experiment, blood was collected from the tail vein of mice before the start of administration (7 weeks old) to measure their blood glucose levels; After the completion of administration (at 13 weeks of mouse age, i.e. the end of the experiment), serum was taken and the blood glucose levels of each group of mice were measured using a fully automated biochemical analyzer.

[6] = tested on: db/db mice; experiment: Urinary albumin creatinine ratio in db/db mice; format: in vivo; conditions: in combination with a SGLT-2 inhibitor
[7] = tested on: Patients of type II diabetic kidney disease; experiment: Clinical trial of TBN and TBN + SGLT2i: change of UACR relative to baseline (Example 3); format: in vivo, human
Procedure: The present invention adopts a test design of multicenter, randomized, double-blind, placebo-controlled parallel control.
Subjects of the experiments: Patients of type II diabetic kidney disease were taken as the subjects in the experiments (all signed the informed consent form). In at least 2 of the 3 morning urine in the screening period, the urinary microalbumin/creatinine ratio (UACR) is of ≥30 mg/g and <300 mg/g.
The medication schedule: Administration of 180 consecutive days. In this example, SGLT2i is commercially available SGLT2i, selected from Engliflozin, Dapagliflozin, and Cargliflozin: Engliflozin once daily, 10 mg; Dapagliflozin once daily, 10 mg; Kagliflozin once daily, 100 mg. In the three subjects in the 300 mg TBN+SGLT2i group, one subject took Engliflozin and two subjects took Dapagliflozin; in the three subjects in the 600 mg TBN+SGLT2i group, all took Dapagliflozin; in the […] in the 1200 mg TBN+SGLT2i group, two subjects took Canagliflozin, one subject took Entegliflozin, and one subject took Dapagliflozin; in the SGLT2i group, one subject took Dapagliflozin.

[8] = Empagliflozin 2.5 mg/kg twice/day i.g.
[9] = Empagliflozin 5 mg/kg twice/day i.g.

## CCOc1ccc(Cc2cc([C@@H]3O[C@H](CO)[C@@H](O)[C@H](O)[C@H]3O)ccc2Cl)cc1 [Dapagliflozin]
[1]
  signal intensity comparison of urinary tract infections: dapagliflozin>canagliflozin>empagliflozin

## OC[C@H]1O[C@@H](c2ccc(Cl)c(Cc3ccc(O[C@H]4CCOC4)cc3)c2)[C@H](O)[C@@H](O)[C@@H]1O [Empagliflozin, reference compound]
[2]; [8]
  Changes in IL-1β: −2.36%
[2]; [9]
  Changes in IL-1β: −16.32%
[1]
  signal intensity comparison of urinary tract infections: dapagliflozin>canagliflozin>empagliflozin
[3]; [8]
  Changes in urinary microalbumin: −4.18%
[3]; [9]
  Changes in urinary microalbumin: −18.62%
[4]; [8]
  Changes in IL-6: −8.55%
[4]; [9]
  Changes in IL-6: −75.05%
[5]; [8]
  Changes in blood glucose: −38.03%
[5]; [9]
  Changes in blood glucose: −44.33%

## Cc1nc(C)c(/C=[N+](\[O-])C(C)(C)C)nc1C [TBN, tetramethylpyrazine nitrone]
[2]; TBN 10 mg/kg twice/day i.g.
  Changes in IL-1β: −5.88%
[2]; TBN 30 mg/kg twice/day i.g.
  Changes in IL-1β: 0.20%
[3]; TBN 10 mg/kg twice/day i.g.
  Changes in urinary microalbumin: −0.61%
[3]; TBN 30 mg/kg twice/day i.g.
  Changes in urinary microalbumin: −23.09%
[3]
  24-hour urinary microalbumin (in words): reduce
[6]
  urinary albumin creatinine ratio (in words): reduce
[4]; TBN 10 mg/kg twice/day i.g.
  Changes in IL-6: −36.43%
[4]; TBN 30 mg/kg twice/day i.g.
  Changes in IL-6: −58.34%
[4]
  content of IL-6 in the serum of model animals (in words): significantly reduce
[7]; TBN 300 mg twice/day po, n = 18, Day 90
  Percentage of changes in UACR relative baseline, Day 90 LS Mean: −1.48%
[7]; TBN 600 mg twice/day po, n = 19, Day 90
  Percentage of changes in UACR relative baseline, Day 90 LS Mean: −43.32%
[7]; TBN 1200 mg twice/day po, n = 14, Day 90
  Percentage of changes in UACR relative baseline, Day 90 LS Mean: −37.08%
[5]; TBN 10 mg/kg twice/day i.g.
  Changes in blood glucose: −0.80%
[5]; TBN 30 mg/kg twice/day i.g.
  Changes in blood glucose: −17.13%
[5]
  blood sugar (in words): synergistically lower

## Cc1nc(/C=[N+](\[O-])C(C)(C)C)c(C)nc1/C=[N+](\[O-])C(C)(C)C [TN-2]
[3]
  24-hour urinary microalbumin (in words): reduce
[6]
  urinary albumin creatinine ratio (in words): reduce
[4]
  content of IL-6 in the serum of model animals (in words): significantly reduce
[5]
  blood sugar (in words): synergistically lower
